# Several values for one entry are separate records, joined by “and”; a condition that tells them apart may be missing. Identical values can stand only once.
# Assays:
# Format in all cases: in vivo
# [1] = tested on: Fasciola hepatica aged 6 weeks resistant to salicylanilides (closantel), susceptible to the other drug families used; assay: Controlled test in sheep: efficacy against immature F. hepatica, salicylanilide-resistant strain; settings: for efficacy: given alone at low dose rates
# Description: (§1) In six controlled tests, a total of 212 merino wethers aged 1 to 2.5 years were used. The sheep were obtained from fluke free areas in North-West New South Wales.
# (§2) Some isolates used in the trials were obtained from existing laboratory populations but the majority of the strains were isolated from the field, their resistance status was defined in several controlled tests and the isolates were then maintained in the laboratory. A laboratory strain from Compton U.K. (Compton Paddock Laboratories, Newbury, Berks. UK) was included in the tests. […] The other isolates originated from properties where salicylanilide compounds were used with variable frequency for the control of fasciolosis or haemonchosis, and also various benzimidazole carbamates were used for the control of gastrointestinal nematodes. Those isolates were further selected in the laboratory with benzimidazole compounds, such as luxabendazole (Hoechst Pty.Ltd., Frankfurt am Main, Germany) or by 8 weekly dosing a group of sheep with triclabendazole (Fasinex, CIBA-GEIGY Aust.Ltd., Pendle Hill, NSW Australia) in a 2 acre paddock with natural snail habitats contaminated with Fasciola hepatica .
# (§3) In the trials, F.hepatica populations were isolated from properties and passaged through suitable intermediate host snails, Lymnaea tomentosa, L.viridis and L.columella in the laboratory. Sheep were then inoculated with the metacercariae of the selected strains by intraruminal injection of metacercariae suspended in 0.4% carboxy-methylcellulose solution. The sheep were divided into groups of 4 or 5. Standardised control tests (Boray, 1969), were carried out to determine the efficacy of various drugs and combinations against immature F.hepatica isolates.
# (§4) Percentage reductions of fluke burdens for the sum of the individual drugs and for the combinations were estimated and their 95 % confidence limits were determined.
# (§5) The drugs tested were triclabendazole (Fasinex, CIBA-GEIGY Australia Ltd.), clorsulon (Curatrem, MSD AGVET Rahway, New Jersey, USA), luxabendazole (Hoechst Pty.Ltd., Frankfurt am Main, Germany), closantel (Seponver, SmithKline Animal Health Australia Ltd.), closantel injectible (Flukiver, Janssen Pharma, Belgium), clorsulon injectible (Ivomec F, MSD Agvet,Rahway, New Jersey, USA) and nitroxynil injectible (Trodax, Cyanamid-Webster Australia Ltd.) The commercial formulations were used and for uniform pharmacokinetic distribution they were injected intraruminally (for those drugs it is equal to oral dosing) at the selected dose rate according to the body weight of the sheep 6 weeks after inoculation. In the trials with the injectible nitroxynil the drugs were applied as a subcutaneous injection. For each trial a group of sheep were left untreated as controls. The sheep were slaughtered 16 weeks after inoculation and the flukes were recovered from the livers and counted. […] The dose rates were selected based on many preliminary studies on the efficacy against F.hepatica aged 6 weeks. […] According to accepted standards (Boray, 1969) high efficacy is achieved when the drug reduces the fluke burden by 90% or more.
# [2] = tested on: Fasciola hepatica aged 6 weeks, resistant to salicylanilides; assay: Controlled test in sheep, subcutaneous injection: efficacy against immature F. hepatica, Hampton II strain
# Description: as §1, §2, §3, §4, §5
# [3] = tested on: Fasciola hepatica aged 6 weeks (Susceptible to the drugs used); assay: Controlled test in sheep: efficacy against immature F. hepatica, susceptible strain
# Description: as §1, §2, §3, §4, §5
# [4] = tested on: Fasciola hepatica aged 6 weeks resistant to salicylanilides (closantel) and benzimidazole carbamates (luxabendazole); assay: Controlled test in sheep: efficacy against immature F. hepatica, multiple resistant Armidale-Morven strain
# Description: as §1, §2, §3, §4, §5
# [5] = tested on: Fasciola hepatica aged 6 weeks resistant to triclabendazole; assay: Controlled test in sheep: efficacy against immature F. hepatica, triclabendazole-resistant strain
# Description: as §1, §2, §3, §4, §5
# [6] = 5.0 mg/kg intraruminal, 5 mg/kg
# [7] = 3.0 mg/kg subcutaneous injection
# [8] = 7.5 mg/kg intraruminal, 7.5 mg/kg
# [9] = 5.0 mg/kg intraruminal, listed as luxabendazole, 5 mg/kg
# [10] = 7.0 mg/kg subcutaneous injection
# [11] = 2.0 mg/kg intraruminal, 2 mg/kg
compound,measurement,setting,value
"CCCSc1ccc2nc(NC(=O)OC)[nH]c2c1 [Albendazole, albendazole]",Mean No. of Fluke (SD),[1]; 5.0 mg/kg intraruminal,52.7 (6.9)
same,Percent Reduction of Fluke Burden (95% Confidence limits),[1]; 5.0 mg/kg intraruminal,"28.4 (6, 72) %"
same,efficacy,[1],very low efficacy
"Nc1cc(C(Cl)=C(Cl)Cl)c(S(N)(=O)=O)cc1S(N)(=O)=O [Clorsulon, clorsulon]",Mean No. of Fluke (SD),[2]; 2.0 mg/kg subcutaneous injection,18.4 (6.6)
same,Percent Reduction of Fluke Burden (95% Confidence limits),"[2]; 2.0 mg/kg subcutaneous injection, 2 mg/kg",36.6 (9.76) %
same,Percent Reduction of Fluke Burden (95% Confidence limits),"[2]; 2.0 mg/kg subcutaneous injection, listed as clorsulon, 2 mg/kg",36.5%
same,Mean No. of Fluke (SD),[3]; 3.0 mg/kg intraruminal,32.5 (4.4)
same,Percent Reduction of Fluke Burden (95% Confidence limits),[3]; 3.0 mg/kg intraruminal,"25.9 (6, 67) %"
same,Mean No. of Fluke (SD),[3]; 5.0 mg/kg intraruminal,30.0 (11.6)
same,Percent Reduction of Fluke Burden (95% Confidence limits),[3]; 5.0 mg/kg intraruminal,"31.6 (9, 67) %"
same,Mean No. of Fluke (SD),[4]; 5.0 mg/kg intraruminal,41.0 (3.7)
same,Percent Reduction of Fluke Burden (95% Confidence limits),[4]; [6],"52.7 (33,72) %"
same,Percent Reduction of Fluke Burden (95% Confidence limits),"[4]; 5.0 mg/kg intraruminal, listed as clorsulon, 5 mg/kg",52%
same,Mean No. of Fluke (SD),[1]; 3.0 mg/kg intraruminal,57.5 (19.6)
same,Percent Reduction of Fluke Burden (95% Confidence limits),[1]; 3.0 mg/kg intraruminal,"21.9 (3, 74) %"
same,efficacy,[1],very low efficacy
same,Mean No. of Fluke (SD),[5]; 3.0 mg/kg intraruminal,55.7 (42.9)
same,Percent Reduction of Fluke Burden (95% Confidence limits),"[5]; 3.0 mg/kg intraruminal, 3 mg/kg","30% and 30.5 (2, 91) %"
same,Mean No. of Fluke (SD),[5]; 5.0 mg/kg intraruminal,45.0 (26.3)
same,Percent Reduction of Fluke Burden (95% Confidence limits),[5]; [6],"43% and 43.9 (7, 89) %"
"Cc1cc(C(C#N)c2ccc(Cl)cc2)c(Cl)cc1NC(=O)c1cc(I)cc(I)c1O (centres unmarked) [Closantel, closantel]",Mean No. of Fluke (SD),[2]; [7],24.4 (14.4)
same,Percent Reduction of Fluke Burden (95% Confidence limits),[2]; [7],15.9%
same,Mean No. of Fluke (SD),[4]; 7.5 mg/kg intraruminal,118 (113.3)
same,Percent Reduction of Fluke Burden (95% Confidence limits),[4]; 7.5 mg/kg intraruminal,0.0%
same,Percent Reduction of Fluke Burden (95% Confidence limits),[4]; [8],inefficient
same,Mean No. of Fluke (SD),[1]; 5.0 mg/kg intraruminal,62.0 (17.1)
same,Mean No. of Fluke (SD),[1]; 7.5 mg/kg intraruminal,48.2 (38 6)
same,Percent Reduction of Fluke Burden (95% Confidence limits),[1]; 7.5 mg/kg intraruminal,"34.5 (10, 72) %"
same,efficacy,[1],very low efficacy
"COC(=O)Nc1nc2ccc(Sc3ccccc3)cc2[nH]1 [Fenbendazole, fenbendazole]",Mean No. of Fluke (SD),[1]; 5.0 mg/kg intraruminal,71.0 (8.0)
same,Percent Reduction of Fluke Burden (95% Confidence limits),[1]; 5.0 mg/kg intraruminal,3.6%
same,efficacy,[1],very low efficacy
"COC(=O)Nc1nc2cc(OS(=O)(=O)c3ccc(F)cc3)ccc2[nH]1 [Luxabendazole, luxabendazole]",Mean No. of Fluke (SD),[3]; 5.0 mg/kg intraruminal,32.0 (9.5)
same,Percent Reduction of Fluke Burden (95% Confidence limits),[3]; [6],"27.0 (6, 67) %"
same,Percent Reduction of Fluke Burden (95% Confidence limits),[3]; [9],26%
same,Mean No. of Fluke (SD),[4]; 7.5 mg/kg intraruminal,89.0 (22.6)
same,Percent Reduction of Fluke Burden (95% Confidence limits),[4]; 7.5 mg/kg intraruminal,0.0%
same,Percent Reduction of Fluke Burden (95% Confidence limits),[4]; [8],inefficient
same,Mean No. of Fluke (SD),[1]; 5.0 mg/kg intraruminal,51.7 (25.3)
same,efficacy,[1],very low efficacy
same,Mean No. of Fluke (SD),[5]; 5.0 mg/kg intraruminal,62.7 (61.3)
same,Percent Reduction of Fluke Burden (95% Confidence limits),[5]; [6],"21.7 (1, 95) %"
same,Percent Reduction of Fluke Burden (95% Confidence limits),[5]; [9],21%
"N#Cc1cc(I)c(O)c([N+](=O)[O-])c1 [Nitroxynil, nitroxynil]",Mean No. of Fluke (SD),[2]; [10],26.6 (6.6)
same,Percent Reduction of Fluke Burden (95% Confidence limits),[2]; [10],8.3%
"COC(=O)Nc1nc2ccc([S+]([O-])c3ccccc3)cc2[nH]1 (centres unmarked) [Oxfendazole, oxfendazole]",Mean No. of Fluke (SD),[1]; 5.0 mg/kg intraruminal,74.5 (14.8)
same,efficacy,[1],very low efficacy
"CSc1nc2cc(Cl)c(Oc3cccc(Cl)c3Cl)cc2[nH]1 [Triclabendazole, triclabendazole]",Mean No. of Fluke (SD),"[3]; 2.0 mg/kg intraruminal 6 weeks after inoculation, slaughter at 16 weeks",9.2 (8.3)
same,Percent Reduction of Fluke Burden (95% Confidence limits),"[3]; 2.0 mg/kg intraruminal, vs untreated controls, 2 mg/kg","78.9 (58, 91) %"
same,Percent Reduction of Fluke Burden (95% Confidence limits),"[3]; 2.0 mg/kg intraruminal, vs untreated controls, listed as triclabendazole, 2 mg/kg",79%
same,Mean No. of Fluke (SD),[4]; 2.0 mg/kg intraruminal,25.5 (13.5)
same,Percent Reduction of Fluke Burden (95% Confidence limits),[4]; 2.0 mg/kg intraruminal,70%
same,Percent Reduction of Fluke Burden (95% Confidence limits),[4]; [11],"70.6 (53, 83) %"
same,Mean No. of Fluke (SD),[5]; 2.0 mg/kg intraruminal,55.0 (51.1)
same,Percent Reduction of Fluke Burden (95% Confidence limits),[5]; [11],"31.4 (2, 91) %"
same,Percent Reduction of Fluke Burden (95% Confidence limits),"[5]; 2.0 mg/kg intraruminal, listed as triclabendazole, 2 mg/kg",30%

# Reference: patent publication EP0710105B1, “SYNERGISTIC ANTHELMINTIC COMPOSITIONS AGAINST FASCIOLA HEPATICA AND OTHER FASCIOLA SPECIES” (THE AUSTRALIAN NATIONAL UNIVERSITY, priority 1993, dated 1994)
